Reference: patent publication US10745396B2, “Pesticidally active polycyclic derivatives with sulfur containing substituents” (Syngenta Participations AG, priority 2015, dated 2020)

How the values were obtained:
Type in all cases: in vivo
[1] = system: Diabrotica balteata (Corn Root Worm); experiment: Diabrotica balteata, maize sprouts on agar, L2 larvae; conditions: 96 h, application rate of 200 ppm, 4 days after infestation, read-out: effect in at least one of the two categories (mortality or growth inhibition)
Method: Example B2: Diabrotica balteata (Corn Root Worm)
Maize sprouts placed onto an agar layer in 24-well microtiter plates were treated with aqueous test solutions prepared from 10′000 ppm DMSO stock solutions by spraying. After drying, the plates were infested with L2 larvae (6 to 10 per well). The samples were assessed for mortality and growth inhibition in comparison to untreated samples 4 days after infestation.

[2] = system: Plutella xylostella (Diamond Back Moth); experiment: Plutella xylostella, artificial diet, L2 larvae; conditions: 120 h, application rate of 200 ppm, 5 days after infestation, read-out: effect in at least one of the two categories (mortality or growth inhibition)
Method: Example B7: Plutella xylostella (Diamond Back Moth)
24-well microtiter plates with artificial diet were treated with aqueous test solutions prepared from 10′000 ppm DMSO stock solutions by pipetting. After drying, the plates were infested with L2 larvae (10 to 15 per well). The samples were assessed for mortality and growth inhibition in comparison to untreated samples 5 days after infestation.

[3] = system: Spodoptera littoralis (Egyptian Cotton Leaf Worm); experiment: Spodoptera littoralis, cotton leaf discs, L1 larvae; conditions: foliar, 72 h, application rate of 200 ppm, 3 days after infestation
Method: Example B8: Spodoptera littoralis (Egyptian Cotton Leaf Worm)
Cotton leaf discs were placed onto agar in 24-well microtiter plates and sprayed with aqueous test solutions prepared from 10′000 ppm DMSO stock solutions. After drying the leaf discs were infested with five L1 larvae. The samples were assessed for mortality, anti-feeding effect, and growth inhibition in comparison to untreated samples 3 days after infestation. Control of Spodoptera littoralis by a test sample is given when at least one of the categories mortality, anti-feedant effect, and growth inhibition is higher than the untreated sample.

[4] = system: Euschistus heros (Neotropical Brown Stink Bug); experiment: Euschistus heros, soybean leaves on agar, N2 nymphs; conditions: 120 h, application rate of 200 ppm, 5 days after infestation, read-out: effect in at least one of the two categories (mortality or growth inhibition)
Method: Example B3: Euschistus heros (Neotropical Brown Stink Bug)
Soybean leaves on agar in 24-well microtiter plates were sprayed with aqueous test solutions prepared from 10′000 ppm DMSO stock solutions. After drying the leaves were infested with N2 nymphs. The samples were assessed for mortality and growth inhibition in comparison to untreated samples 5 days after infestation.

[5] = system: Myzus persicae (Green Peach Aphid); experiment: Myzus persicae feeding/contact activity, sunflower leaf discs; conditions: foliar, 144 h, application rate of 200 ppm, 6 days after infestation
Method: Example B5: Myzus persicae (Green Peach Aphid): Feeding/Contact Activity
Sunflower leaf discs were placed onto agar in a 24-well microtiter plate and sprayed with aqueous test solutions prepared from 10′000 ppm DMSO stock solutions. After drying, the leaf discs were infested with an aphid population of mixed ages. The samples were assessed for mortality 6 days after infestation.

[6] = system: Spodoptera littoralis (Egyptian Cotton Leaf Worm); experiment: Spodoptera littoralis, uptake by lettuce roots from agar, eggs; conditions: 144 h, test rate of 12.5 ppm, 6 days after infestation, read-out: effect in at least one of the three categories (mortality, anti-feeding, or growth inhibition)
Text: Example B9: Spodoptera littoralis (Egyptian Cotton Leaf Worm)
Test compounds were applied by pipette from 10′000 ppm DMSO stock solutions into 24-well plates and mixed with agar. Lettuce seeds were placed onto the agar and the multi well plate was closed by another plate which contained also agar. After 7 days the compound was absorbed by the roots and the lettuce grew into the lid plate. The lettuce leaves were then cut off into the lid plate. Spodoptera eggs were pipetted through a plastic stencil onto a humid gel blotting paper and the lid plate was closed with it. The samples were assessed for mortality, anti-feedant effect and growth inhibition in comparison to untreated samples 6 days after infestation.

CCn1c(C(F)(F)F)cc2nc(-c3nc(-c4cc(C(F)(F)F)cc(C(F)(F)F)c4)ccc3S(=O)(=O)CC)n(C)c2c1=O [Compound P36]
≥ 80%: percent effect (mortality or growth inhibition) at 200 ppm [1] | percent effect (mortality or growth inhibition) at 200 ppm [2] | percent control (mortality, anti-feedant effect or growth inhibition) at 200 ppm [3]

CCn1c(C(F)(F)F)cc2nc(-c3nc(-c4ccc(OC)c(F)c4)ccc3S(=O)(=O)CC)n(C)c2c1=O [Compound P23]
≥ 80%: percent effect (mortality or growth inhibition) at 200 ppm [1] | percent effect (mortality or growth inhibition) at 200 ppm [4] | mortality at 200 ppm [5] | percent effect (mortality or growth inhibition) at 200 ppm [2] | percent control (mortality, anti-feedant effect or growth inhibition) at 200 ppm [3]

CCS(=O)(=O)c1ccc(-n2cc(Cl)cn2)nc1-c1nc2cc(C(F)(F)F)n(C)c(=O)c2n1C [Compound P7, 2-[6-(4-chloropyrazol-1-yl)-3-ethylsulfonyl-2-pyridyl]-3,5-dimethyl-6-(trifluoromethyl)imidazo[4,5-c]pyridin-4-one]
≥ 80%: percent control (mortality, anti-feedant effect or growth inhibition) at 200 ppm [3]

CCn1c(C(F)(F)F)cc2nc(-c3nc(-c4ccc(C(F)(F)F)cc4)ccc3S(=O)(=O)CC)n(C)c2c1=O [Compound P2, 5-ethyl-2-[3-ethylsulfonyl-6-[4-(trifluoromethyl)phenyl]-2-pyridyl]-3-methyl-6-(trifluoromethyl)imidazo[4,5-c]pyridin-4-one]
≥ 80%: percent effect (mortality or growth inhibition) at 200 ppm [1] | percent effect (mortality or growth inhibition) at 200 ppm [4] | percent effect (mortality or growth inhibition) at 200 ppm [2] | percent control (mortality, anti-feedant effect or growth inhibition) at 200 ppm [3]

CCn1c(C(F)(F)F)cc2nc(-c3nc(-c4ccsc4)ccc3S(=O)(=O)CC)n(C)c2c1=O [Compound P27]
≥ 80%: percent control (mortality, anti-feedant effect or growth inhibition) at 200 ppm [3]

CCn1c(C(F)(F)F)cc2nc(-c3nc(-c4ccc(Cl)c(C)c4)ccc3S(=O)(=O)CC)n(C)c2c1=O [Compound P24]
≥ 80%: percent effect (mortality or growth inhibition) at 200 ppm [1] | percent effect (mortality or growth inhibition) at 200 ppm [2] | percent control (mortality, anti-feedant effect or growth inhibition) at 200 ppm [3]

CCn1c(C(F)(F)F)cc2nc(-c3nc(-c4ccc(OC(F)(F)F)cc4)ccc3S(=O)(=O)CC)n(C)c2c1=O [Compound P22]
≥ 80%: percent effect (mortality or growth inhibition) at 200 ppm [1] | percent effect (mortality or growth inhibition) at 200 ppm [4] | percent effect (mortality or growth inhibition) at 200 ppm [2] | percent control (mortality, anti-feedant effect or growth inhibition) at 200 ppm [3] | percent effect (mortality, anti-feeding or growth inhibition) at 12.5 ppm [6]

CCn1c(C(F)(F)F)cc2nc(-c3nc(-c4ccc(F)cc4)ccc3S(=O)(=O)CC)n(C)c2c1=O [Compound P26]
≥ 80%: percent effect (mortality or growth inhibition) at 200 ppm [2] | percent control (mortality, anti-feedant effect or growth inhibition) at 200 ppm [3]

CCn1c(C(F)(F)F)cc2nc(-c3nc(-c4cccnc4)ccc3S(=O)(=O)CC)n(C)c2c1=O [Compound P30]
≥ 80%: percent effect (mortality or growth inhibition) at 200 ppm [1] | percent effect (mortality or growth inhibition) at 200 ppm [4] | mortality at 200 ppm [5] | percent effect (mortality or growth inhibition) at 200 ppm [2] | percent control (mortality, anti-feedant effect or growth inhibition) at 200 ppm [3]

CCn1c(C(F)(F)F)cc2nc(-c3nc(-c4ccccc4)ccc3S(=O)(=O)CC)n(C)c2c1=O [Compound P18]
≥ 80%: percent effect (mortality or growth inhibition) at 200 ppm [1] | percent effect (mortality or growth inhibition) at 200 ppm [4] | mortality at 200 ppm [5] | percent effect (mortality or growth inhibition) at 200 ppm [2] | percent control (mortality, anti-feedant effect or growth inhibition) at 200 ppm [3] | percent effect (mortality, anti-feeding or growth inhibition) at 12.5 ppm [6]

CCn1c(C(F)(F)F)cc2nc(-c3nc(C4CC4)ccc3S(=O)(=O)CC)n(C)c2c1=O [Compound P39]
≥ 80%: percent effect (mortality or growth inhibition) at 200 ppm [1] | percent effect (mortality or growth inhibition) at 200 ppm [4] | mortality at 200 ppm [5] | percent effect (mortality or growth inhibition) at 200 ppm [2] | percent control (mortality, anti-feedant effect or growth inhibition) at 200 ppm [3] | percent effect (mortality, anti-feeding or growth inhibition) at 12.5 ppm [6]

C/C=C/c1ccc(S(=O)(=O)CC)c(-c2nc3cc(C(F)(F)F)n(CC)c(=O)c3n2C)n1 [Compound P25]
≥ 80%: percent effect (mortality or growth inhibition) at 200 ppm [1] | mortality at 200 ppm [5] | percent control (mortality, anti-feedant effect or growth inhibition) at 200 ppm [3]

CCn1c(C(F)(F)F)cc2nc(-c3nc(-c4ccc(C(F)(F)F)cc4F)ccc3S(=O)(=O)CC)n(C)c2c1=O [Compound P33]
≥ 80%: percent effect (mortality or growth inhibition) at 200 ppm [1] | percent effect (mortality or growth inhibition) at 200 ppm [2] | percent control (mortality, anti-feedant effect or growth inhibition) at 200 ppm [3]

CCn1c(C(F)(F)F)cc2nc(-c3nc(-c4ccc(F)c(F)c4)ccc3S(=O)(=O)CC)n(C)c2c1=O [Compound P34]
≥ 80%: percent effect (mortality or growth inhibition) at 200 ppm [1] | percent effect (mortality or growth inhibition) at 200 ppm [2] | percent control (mortality, anti-feedant effect or growth inhibition) at 200 ppm [3]

CCn1c(C(F)(F)F)cc2nc(-c3nc(-c4cc(F)cc(Cl)c4)ccc3S(=O)(=O)CC)n(C)c2c1=O [Compound P19]
≥ 80%: percent effect (mortality or growth inhibition) at 200 ppm [1] | percent effect (mortality or growth inhibition) at 200 ppm [2] | percent control (mortality, anti-feedant effect or growth inhibition) at 200 ppm [3]

CCn1c(C(F)(F)F)cc2nc(-c3nc(-c4cc(F)cc(F)c4)ccc3S(=O)(=O)CC)n(C)c2c1=O [Compound P12]
≥ 80%: percent effect (mortality or growth inhibition) at 200 ppm [1] | percent effect (mortality or growth inhibition) at 200 ppm [4] | mortality at 200 ppm [5] | percent effect (mortality or growth inhibition) at 200 ppm [2] | percent control (mortality, anti-feedant effect or growth inhibition) at 200 ppm [3] | percent effect (mortality, anti-feeding or growth inhibition) at 12.5 ppm [6]

CCn1c(C(F)(F)F)cc2nc(-c3nc(-c4ccc(C#N)cc4)ccc3S(=O)(=O)CC)n(C)c2c1=O [Compound P15]
≥ 80%: percent effect (mortality or growth inhibition) at 200 ppm [1] | percent effect (mortality or growth inhibition) at 200 ppm [4] | percent effect (mortality or growth inhibition) at 200 ppm [2] | percent control (mortality, anti-feedant effect or growth inhibition) at 200 ppm [3] | percent effect (mortality, anti-feeding or growth inhibition) at 12.5 ppm [6]

CCn1c(C(F)(F)F)cc2nc(-c3nc(-c4cccc(Cl)c4)ccc3S(=O)(=O)CC)n(C)c2c1=O [Compound P17]
≥ 80%: percent effect (mortality or growth inhibition) at 200 ppm [1] | percent effect (mortality or growth inhibition) at 200 ppm [4] | mortality at 200 ppm [5] | percent effect (mortality or growth inhibition) at 200 ppm [2] | percent control (mortality, anti-feedant effect or growth inhibition) at 200 ppm [3]

CCn1c(C(F)(F)F)cc2nc(-c3nc(-c4cc(F)c(F)c(F)c4)ccc3S(=O)(=O)CC)n(C)c2c1=O [Compound P35]
≥ 80%: percent effect (mortality or growth inhibition) at 200 ppm [1] | percent effect (mortality or growth inhibition) at 200 ppm [4] | percent effect (mortality or growth inhibition) at 200 ppm [2] | percent control (mortality, anti-feedant effect or growth inhibition) at 200 ppm [3]

CCS(=O)(=O)c1ccc(-n2cc(C(F)(F)F)cn2)nc1-c1nc2cc(C(F)(F)F)n(C)c(=O)c2n1C [Compound P9]
≥ 80%: percent effect (mortality or growth inhibition) at 200 ppm [1] | percent effect (mortality or growth inhibition) at 200 ppm [4] | percent effect (mortality or growth inhibition) at 200 ppm [2] | percent control (mortality, anti-feedant effect or growth inhibition) at 200 ppm [3]

CCn1c(C(F)(F)F)cc2nc(-c3nc(-c4cncs4)ccc3S(=O)(=O)CC)n(C)c2c1=O [Compound P31]
≥ 80%: percent effect (mortality or growth inhibition) at 200 ppm [1] | mortality at 200 ppm [5] | percent effect (mortality or growth inhibition) at 200 ppm [2] | percent control (mortality, anti-feedant effect or growth inhibition) at 200 ppm [3]

CCS(=O)(=O)c1ccc(-c2cc(F)cc(F)c2)nc1-c1nc2cc(C(F)(F)F)n(C3CC3)c(=O)c2n1C [Compound P41]
≥ 80%: percent effect (mortality or growth inhibition) at 200 ppm [1] | percent effect (mortality or growth inhibition) at 200 ppm [2] | percent control (mortality, anti-feedant effect or growth inhibition) at 200 ppm [3] | percent effect (mortality, anti-feeding or growth inhibition) at 12.5 ppm [6]

CCn1c(C(F)(F)F)cc2nc(-c3nc(-c4ccc(Cl)c(Cl)c4)ccc3S(=O)(=O)CC)n(C)c2c1=O [Compound P10]
≥ 80%: percent effect (mortality or growth inhibition) at 200 ppm [1] | percent effect (mortality or growth inhibition) at 200 ppm [2] | percent control (mortality, anti-feedant effect or growth inhibition) at 200 ppm [3]

CCn1c(C(F)(F)F)cc2nc(-c3nc(-c4ccc(Cl)cc4Cl)ccc3S(=O)(=O)CC)n(C)c2c1=O [Compound P32]
≥ 80%: percent effect (mortality or growth inhibition) at 200 ppm [1] | percent effect (mortality or growth inhibition) at 200 ppm [2] | percent control (mortality, anti-feedant effect or growth inhibition) at 200 ppm [3]
